Results from US9776979B2, “EBI2 modulators” (Sanford-Burnham Medical Research Institute, priority 2013, dated 2017).

These molecules were tested against EBI2 (Homo sapiens, UniProt P32249) (assay: Cell-based luminescent assay (EBI2 modulation)). Conditions: not given.
In short: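 Cells plated overnight at 37° C, then exposed to compound at 4-5 uM final with 80 nM 7a,25-OHC agonist for 60 min at 37° C. Luminescence read after 60 min detection at 25° C in the dark; values normalized to neutral and stimulator controls and plate-pattern corrected.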

EBI2, sequence (P32249 whole entry): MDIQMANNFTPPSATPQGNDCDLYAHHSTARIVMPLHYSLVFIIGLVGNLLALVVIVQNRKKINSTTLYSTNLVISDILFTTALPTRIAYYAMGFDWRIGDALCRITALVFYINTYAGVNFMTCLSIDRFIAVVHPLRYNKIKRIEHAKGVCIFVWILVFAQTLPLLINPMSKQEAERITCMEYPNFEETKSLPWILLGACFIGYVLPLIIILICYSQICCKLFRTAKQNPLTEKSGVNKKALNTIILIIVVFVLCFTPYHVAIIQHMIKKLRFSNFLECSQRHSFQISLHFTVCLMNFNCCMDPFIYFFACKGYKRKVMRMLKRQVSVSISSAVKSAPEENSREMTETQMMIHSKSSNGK

For O=C(/C=C/c1ccc(Br)cc1)N1CCC(Nc2ccccc2)CC1 [Compound C13, (2E)-3-(4-bromophenyl)-1-[4-(phenylamino)piperidyl]prop-2-en-1-one], the IC50 was < 100 nM.

Same assay, conditions: cell-based luminescence; 7a,25-OHC final assay concentration 80 nM; 60 minutes incubation; read-out: IC50

First: O=C(/C=C/c1ccc(Cl)c(Cl)c1)N1CCN(C(=O)c2ccc(C(F)(F)F)cc2)CC1 [Compound C6, (2E)-3-(3,4-dichlorophenyl)-1-(4-{[4-(trifluoromethyl)phenyl]carbonyl}piperazinyl) prop-2-en-1-one]
Second: 1-{4-[(4-fluorophenyl)methyl]piperazinyl}-3-[2-(trifluoromethyl)phenyl]prop-2-yn-1-one [Compound C438]
The IC50 of the first is lower: < 100 nM for the first, 100 to 500 nM for the second.

First: Cc1cc(C)c(S(=O)(=O)N2CCN(C(=O)/C=C/c3ccc(Br)cc3)CC2)c(C)c1 [Compound E1, (2E)-3-(4-bromophenyl)-1-{4-[(2,4,6-trimethylphenyl)sulfonyl]piperazinyl} prop-2-en-1-one]
Second: O=C(C=Cc1ccc2c(c1)OCO2)N1CCN(Cc2ccc(C(F)(F)F)cc2)CC1 [Compound C167, 3-(2H-benzo[3,4-d]1,3-dioxolan-5-yl)-1-(4-{[4-(trifluoromethyl)phenyl]methyl}piperazinyl)prop-2-en-1-one]
The IC50 of the first is lower: < 100 nM for the first, 500 to 5000 nM for the second.

“1-(4-{[4-fluoro-2-(trifluoromethyl)phenyl]carbonyl}piperazinyl)-3-phenylprop-2-yn-1-one [Compound C321]” and “4-(diphenylmethyl)piperazinyl indol-6-yl ketone [Compound C370]” cannot be ordered by IC50: < 100 nM for the first, < 100 nM for the second.

CC(C)c1ccc(S(=O)(=O)N2CCN(C(=O)/C=C/c3ccc(F)cc3)CC2)cc1 [Compound C261, (2E)-3-(4-fluorophenyl)-1-(4-{[4-(methylethyl)phenyl]sulfonyl}piperazinyl)prop-2-en-1-one] and O=C(C#Cc1ccc(Br)cc1)N1CCN(C(=O)c2ccc(-c3nnn[nH]3)cc2)CC1 [Compound C149, 3-(4-bromophenyl)-1-{4-[(4-(5H-1,2,3,4-tetraazol-5-yl)phenyl)carbonyl]piperazinyl}prop-2-yn-1-one] cannot be ordered by IC50: < 100 nM for the first, < 100 nM for the second.

“(2E)-1-{4-[(2,4-difluorophenyl)carbonyl]piperazinyl}-3-(4-bromophenyl)prop-2-en-1-one [Compound C46]” and “3-(2,3-dichlorophenyl)-1-{4-[(4-chlorophenyl)carbonyl]piperazinyl}prop-2-yn-1-one [Compound C30]” cannot be ordered by IC50: < 100 nM for the first, < 100 nM for the second.

First: 4-bromophenyl 4-{[4-(methylethyl)phenyl]methyl}piperazinyl ketone [Compound C176]
Second: Cc1ccc(CN2CCN(C(=O)/C=C/c3ccc(Br)cc3)CC2)cc1 [Compound C41, (2E)-3-(4-bromophenyl)-1-{4-[(4-methylphenyl)methyl]piperazinyl}prop-2-en-1-one]
The IC50 of the first is higher: 500 to 5000 nM for the first, < 100 nM for the second.

First: O=C(/C=C/c1ccc(Cl)cc1F)N1CCN(S(=O)(=O)c2ccccc2)CC1 [Compound C439, (2E)-3-(4-chloro-2-fluorophenyl)-1-[4-(phenylsulfonyl)piperazinyl]prop-2-en-1-one]
Second: COc1ccc(C(=O)N2CCN(C(=O)C#Cc3ccc(Cl)c(Cl)c3)CC2)cc1 [Compound C12, 3-(3,4-dichlorophenyl)-1-{4-[(4-methoxyphenyl)carbonyl]piperazinyl}prop-2-yn-1-one]
The IC50 of the first is higher: 100 to 500 nM for the first, < 100 nM for the second.

COc1ccc(/C=C/C(=O)N2CCN(S(=O)(=O)c3ccccc3)CC2)cc1 [Compound E4, (2E)-3-(4-methoxyphenyl)-1-[4-(phenylsulfonyl)piperazinyl]prop-2-en-1-one] and O=C(/C=C/c1ccc(Br)cc1F)N1CCN(S(=O)(=O)c2ccc(Br)cc2)CC1 [Compound C377, (2E)-3-(4-bromo-2-fluorophenyl)-1-{4-[(4-bromophenyl)sulfonyl]piperazinyl}prop-2-en-1-one] cannot be ordered by IC50: < 100 nM for the first, < 100 nM for the second.

First: O=C(C=Cc1ccc2c(c1)OCO2)N1CCN(C(=O)c2ccc(C(F)(F)F)cc2)CC1 [Compound C430, 3-(2H-benzo[3,4-d]1,3-dioxolen-5-yl)-1-(4-{[4-(trifluoromethyl)phenyl]carbonyl}piperazinyl)prop-2-en-1-one]
Second: O=C(c1cc2ccc(F)cc2[nH]1)N1CCN(C(=O)c2ccc(F)cc2C(F)(F)F)CC1 [Compound C189, 6-fluoroindol-2-yl 4-{[4-fluoro-2-(trifluoromethyl)phenyl]carbonyl}piperazinyl ketone]
The IC50 of the first is lower: 100 to 500 nM for the first, 500 to 5000 nM for the second. The first is the more potent here.

First: O=C(C#Cc1ccc(F)cc1)N1CCN(C(=O)c2ccc(C(F)(F)F)cc2)CC1 [Compound C253, 3-(4-fluorophenyl)-1-(4-{[4-(trifluoromethyl)phenyl]carbonyl}piperazinyl)prop-2-yn-1-one]
Second: Cc1ccc2[nH]c(C(=O)NC3CCN(C(c4ccccc4)c4ccccc4)CC3)cc2c1 [Compound C162, N-[1-(diphenylmethyl)(4-piperidyl)](5-methylindol-2-yl)carboxamide]
The IC50 of the first is lower: < 100 nM for the first, 500 to 5000 nM for the second. The first is the more potent here.

O=C(c1cc2cc(Cl)ccc2[nH]1)N1CCN(S(=O)(=O)CCc2ccccc2)CC1 [Compound C88, 5-chloroindol-2-yl 4-[(2-phenylethyl)sulfonyl]piperazinyl ketone] and O=C(/C=C/c1ccc(Cl)c(Cl)c1)N1CCN(Cc2ccc(Cl)cc2)CC1 [Compound C214, (2E)-3-(3,4-dichlorophenyl)-1-{4-[(4-chlorophenyl)methyl]piperazinyl}prop-2-en-1-one] cannot be ordered by IC50: < 100 nM for the first, < 100 nM for the second.

O=C(c1ccc(Br)cc1)N1CCN(Cc2ccc(Cl)cc2)CC1 [Compound C472, 4-bromophenyl 4-[(4-chlorophenyl)methyl]piperazinyl ketone] and CC(C)(C)c1ccc(S(=O)(=O)N2CCN(C(=O)/C=C/c3ccc(Cl)cc3F)CC2)cc1 [Compound C448, (2E)-1-(4-{[4-(tert-butyl)phenyl]sulfonyl}piperazinyl)-3-(4-chloro-2-fluorophenyl)prop-2-en-1-one] fall in the same range of IC50: 100 to 500 nM for the first, 100 to 500 nM for the second.

O=C(C#Cc1cc(F)cc(F)c1)N1CCN(C(=O)c2ccc(Cl)cc2)CC1 [Compound C343, 3-(3,5-difluorophenyl)-1-{4-[(4-chlorophenyl)carbonyl]piperazinyl}prop-2-yn-1-one] and O=C(C#Cc1ccc(Cl)cc1)N1CCN(Cc2ccc(Cl)cc2)CC1 [Compound C384, 3-(4-chlorophenyl)-1-{4-[(4-chlorophenyl)methyl]piperazinyl}prop-2-yn-1-one] cannot be ordered by IC50: < 100 nM for the first, < 100 nM for the second.

O=C(c1cnc2cc(F)ccc2c1)N1CCN(C(c2ccccc2)c2ccccc2)CC1 [Compound C86, 4-(diphenylmethyl)piperazinyl 7-fluoro(3-quinolyl) ketone] and O=C(/C=C/c1ccc(F)cc1)N1CCN(S(=O)(=O)c2cccc(Br)c2)CC1 [Compound C209, (2E)-1-{4-[(3-bromophenyl)sulfonyl]piperazinyl}-3-(4-fluorophenyl)prop-2-en-1-one] cannot be ordered by IC50: < 100 nM for the first, < 100 nM for the second.

O=C(/C=C/c1ccc(Br)cc1)N1CCN(C(=O)c2ccccc2)CC1 [Compound C14, (2E)-3-(4-bromophenyl)-1-[4-(phenylcarbonyl)piperazinyl]prop-2-en-1-one] and O=C(/C=C/c1ccccc1)N1CCN(C(c2ccccc2)c2ccccc2)CC1 [Compound C42, (2E)-1-[4-(diphenylmethyl)piperazinyl]-3-phenylprop-2-en-1-one] cannot be ordered by IC50: < 100 nM for the first, < 100 nM for the second.
